Where two headings read alike, the source gives them in different places.
Columns and labels:
[1] = test system: pressor response to exogenous angiotensin II; experiment: inhibition of pressor response to angiotensin II in conscious rats; format: in vivo; details: Rattus norvegicus, dose producing 50% inhibition of the control response to angiotensin II, read-out: IC50 (the source's name)
Description: (§1) Angiotensin II antagonist activity of the compounds of Formula (I) is assessed by in vitro and in vivo methods. In vitro antagonist activity is determined by the ability of the compounds to compete with ^125I-angiotensin II for binding to vascular angiotensin It receptors and by their ability to antagonize the contractile response to angiotensin II in the isolated rabbit aorta. In vivo activity is evaluated by the efficacy of the compounds to inhibit the pressor response to exogenous angiotensin II in conscious rats and to lower blood pressure in a rat model of […] hypertension.
Rats are prepared with indwelling femoral arterial and venous catheters and a stomach tube (Gellai et al., Kidney Int. 15:419, 1979). Two to three days following surgery the rats are placed in a restrainer and blood pressure is continuously monitored from the arterial catheter with a pressure transducer and recorded on a polygraph. The change in mean arterial pressure in response to intravenous injections of […] angiotensin II is compared at various time points prior to and following the administration of the compounds intravenously or orally at doses of 0.1 to 300 mg/kg. The dose of compound needed to produce 50% inhibition of the control response to angiotensin II (IC50) is used to estimate the potency of the compounds.

[2] = test system: conscious rats made renin-dependent hypertensive; experiment: antihypertensive activity in renal artery ligated (renin-dependent hypertensive) rats; format: in vivo; details: dose needed to reduce mean arterial pressure by 30 mm Hg
Description: as §1
The antihypertensive activity of the compounds is measured by their ability to reduce mean arterial pressure in conscious rats made renin-dependent hypertensive by ligation of the left renal artery (Cangiano et al., J. Pharmacol. Exp. Ther. 208:310, 1979). Renal artery ligated rats are prepared with indwelling catheters as described above. Seven to eight days following renal artery ligation, the time at which plasma renin levels are highest, the conscious rats are placed in restrainers and mean arterial pressure is continuously recorded prior to and following the administration of the compounds intravenously or orally. The dose of compound needed to reduce mean arterial pressure by 30 mm Hg (IC50) is used as an estimate of potency.

**Q.** Which results are given for `CCCCc1ncc(/C=C(\Cc2cccs2)C(=O)O)n1Cc1ccccc1Cl` [Example 1, (E)-3-[2-n-Butyl-1-{(2-chlorophenyl)methyl}-1H-imidazol-5-yl]-2-(2-thienyl)methyl-2-propenoic Acid]?
**A.** ED50 ([1]; iv, i.v.): 3.6 mg/kg; ED50 ([1]; po, orally): 44 mg/kg; ED (30 mm Hg) ([2]; Rattus norvegicus, po, orally, read-out: IC50): 8 mg/kg; IC50 ([2]; i.v.): 1.80 mg/kg
